Source: patent US7638538B1, “Pharmaceutically active sulfonyl amino acid derivatives” (Laboratoires Serono S.A., priority 1999, dated 2009)

How the values were obtained:
Format in all cases: biochemical
p38 = p38 (Homo sapiens, UniProt Q16539); experiment: p38 in vitro kinase assay (SPA, GST-ATF2 substrate)
Protocol: (§1) JNK 2 and 3 in vitro assays: JNK 2 and/or 3 assays are performed 96 well MTT plates, by incubation of 0.5 μg of recombinant, pre-activated GST-JNK2 with 1 μg of recombinant, biotinylated GST-c-Jun and 2 μM ^33γ-ATP (2 nCi/μl), in the presence or absence of sulfonyl amino acid inhibitors and in a reaction volume of 150 μl containing 50 mM Tris-HCl, pH 8.0; 10 mM MgCl2; 1 mM Dithiothreitol, and 100 μM NaVO4. The incubation is carried for 120 min. at R.T and stopped up by addition of 200 μl of a solution containing 250 μg of Streptavidine-coated SPA beads (Amersham, Inc.)*, 5 mM EDTA, 0.1% Trinton X-100 and 50 μM ATP, in phosphate saline buffer. After incubation for 60 minutes at RT, beads are sedimented by centrifugation at 1500×g for 5 minutes, resuspended in 200 μl of PBS containing 5 mM EDTA, 0.1% Triton X-100 and 50 μM ATP and the radioactivity measured in a scintillation β counter, following sedimentation of the beads as described above. By substituting GST-c-Jun for biotinylated GST-1ATF2 or myelin basic protein, this assay can be used to measure inhibition of preactivated p38 and ERK MAP Kinases, respectively.

GST-JNK2 = GST-JNK2 (Homo sapiens, UniProt P45984); experiment: JNK2 in vitro kinase assay (SPA, GST-c-Jun substrate)
Protocol: as §1

ERK2 = ERK2 (Homo sapiens, UniProt P28482); experiment: ERK2 in vitro kinase assay (SPA, myelin basic protein substrate)
Protocol: as §1

JNK3 = JNK3 (Homo sapiens, UniProt P53779); experiment: JNK3 in vitro kinase assay (SPA, GST-c-Jun substrate)
Protocol: as §1

ERK2, sequence (P28482 whole entry, species assumed): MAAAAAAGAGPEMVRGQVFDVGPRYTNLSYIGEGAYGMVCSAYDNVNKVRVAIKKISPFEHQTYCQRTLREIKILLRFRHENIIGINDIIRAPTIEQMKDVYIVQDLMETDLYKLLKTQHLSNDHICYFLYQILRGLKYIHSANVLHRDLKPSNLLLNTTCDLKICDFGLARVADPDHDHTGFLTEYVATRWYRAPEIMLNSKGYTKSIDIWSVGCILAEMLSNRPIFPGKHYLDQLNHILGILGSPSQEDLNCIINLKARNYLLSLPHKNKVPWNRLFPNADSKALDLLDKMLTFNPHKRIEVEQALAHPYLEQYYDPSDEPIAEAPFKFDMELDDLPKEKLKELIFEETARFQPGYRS
JNK3, sequence (P53779 whole entry, species assumed): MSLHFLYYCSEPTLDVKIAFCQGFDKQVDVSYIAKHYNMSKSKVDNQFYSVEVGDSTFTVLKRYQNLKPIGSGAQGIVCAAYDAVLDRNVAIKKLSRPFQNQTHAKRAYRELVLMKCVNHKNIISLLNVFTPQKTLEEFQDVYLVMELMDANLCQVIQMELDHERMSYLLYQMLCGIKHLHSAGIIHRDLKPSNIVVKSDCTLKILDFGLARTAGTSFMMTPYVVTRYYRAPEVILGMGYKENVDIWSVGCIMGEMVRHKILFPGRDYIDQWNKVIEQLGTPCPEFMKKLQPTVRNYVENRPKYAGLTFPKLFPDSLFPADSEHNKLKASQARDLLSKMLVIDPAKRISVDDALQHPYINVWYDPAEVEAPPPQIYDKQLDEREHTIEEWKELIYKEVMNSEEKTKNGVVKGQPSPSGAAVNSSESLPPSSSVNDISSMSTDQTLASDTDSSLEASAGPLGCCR
GST-JNK2, sequence (P45984 whole entry): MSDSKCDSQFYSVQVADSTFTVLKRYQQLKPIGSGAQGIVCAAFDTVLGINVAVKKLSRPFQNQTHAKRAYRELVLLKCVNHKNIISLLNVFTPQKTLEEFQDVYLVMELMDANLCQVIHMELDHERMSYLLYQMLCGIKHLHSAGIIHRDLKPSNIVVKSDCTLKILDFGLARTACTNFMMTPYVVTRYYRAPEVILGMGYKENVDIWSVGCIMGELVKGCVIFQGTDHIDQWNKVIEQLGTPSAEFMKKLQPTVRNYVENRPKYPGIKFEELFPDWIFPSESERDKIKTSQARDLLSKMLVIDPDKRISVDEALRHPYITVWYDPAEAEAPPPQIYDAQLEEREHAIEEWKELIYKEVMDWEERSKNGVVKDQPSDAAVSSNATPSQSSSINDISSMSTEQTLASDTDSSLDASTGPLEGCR
p38, sequence (Q16539 whole entry): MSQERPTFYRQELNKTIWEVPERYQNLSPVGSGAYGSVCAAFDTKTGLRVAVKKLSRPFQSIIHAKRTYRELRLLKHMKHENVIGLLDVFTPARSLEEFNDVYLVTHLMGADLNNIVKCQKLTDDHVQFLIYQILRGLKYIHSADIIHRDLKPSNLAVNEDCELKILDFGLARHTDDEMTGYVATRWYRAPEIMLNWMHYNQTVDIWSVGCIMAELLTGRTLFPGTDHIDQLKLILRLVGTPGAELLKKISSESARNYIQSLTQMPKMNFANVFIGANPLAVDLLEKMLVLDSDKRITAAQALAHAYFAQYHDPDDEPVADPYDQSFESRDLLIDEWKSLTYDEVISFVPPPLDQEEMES

IC50 (p38)	IC50 (GST-JNK2)	IC50 (ERK2)	IC50 (JNK3)	SMILES
> 30000 nM	2700 nM	> 30000 nM	1200 nM	O=C(CNS(=O)(=O)c1ccc(CNC(=O)c2ccc(Cl)cc2)s1)NCCNc1ncc(C(F)(F)F)cc1Cl [Example 1, 4chloro-N-({5-[({2-[(2-{[3-chloro-5-(trifluoromethyl)pyridin-2-yl]amino}ethyl)amino]-2-oxoethyl}amino)sulfonyl]thien-2-yl}methyl)benzamide]
> 30000 nM	1300 nM	> 30000 nM	640 nM	O=C(CNS(=O)(=O)c1ccc(CNC(=O)c2ccc(Cl)cc2)s1)Nc1cccc(S(=O)(=O)C(F)(F)F)c1 [Example 6, 4-chloro-N-[(5-{[(2-oxo-2-{3-[(trifluoromethyl)sulfonyl]anilino)ethyl)amino]sulfonyl}thien-2-yl)methyl]benzamide]
